Where a name gives a salt, the structure may show the parent alone. Read-outs that look alike come from different tables or passages of the source.
Assays:
[1] = system: Pseudomonas aeruginosa efflux− (MB9799), IMP-1; format: cell-based; details: efflux− MB9799, imipenem at 2 μg/mL, in the presence of a class A, C, D serine β-lactamase inhibitor closely related to relebactam
In short: (§1)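 PAO1 pair, broth microdilution; fixed β-lactam (imipenem/ceftazidime) at ~CLSI breakpoint + fixed class A/C BLI for AmpC; serial MBLi titration; endpoint = MBLi conc. restoring susceptibility; MB9798:MB9799 ratio = efflux liability.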

VIM-1 = VIM-1 (Pseudomonas aeruginosa (strain ATCC 15692 / DSM 22644 / CIP 104116 / JCM 14847 / LMG 12228 / 1C / PRS 101 / PAO1), UniProt A0A0F7KYQ8); assay: biochemical; details: CCF2-FA substrate, 30 pM enzyme, 2 hours at 25° C.
In short: (§2)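 Inhibitor was mixed with the metallo-β-lactamase and CCF2-FA. After 2 hours at 25° C, fluorescence of the coumarin–fluorescein cephalosporin substrate was read. IC50 was calculated with a 4-parameter fit.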

[2] = system: Serratia marcescens expressing IMP-1 (CL5741); format: cell-based; details: IMP-1 strain CL5741, with imipenem 1 μg/ml
In short: (§3)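 Clinical strains grown overnight on blood agar at 35°C, colonies suspended in saline, diluted 1:100 into 1.1×CAMHB. Test compound titrated with imipenem at 1 μg/ml; incubated 22–24 h at 35°C, growth read by absorbance.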

[3] = system: Escherichia coli expressing NDM-1 (CLB30005, CLB30016); format: cell-based; details: NDM-1 strain, with imipenem 1 μg/ml
In short: as §3

[4] = system: Klebsiella pneumoniae expressing VIM-1 (IHMA599644); format: cell-based; details: VIM-1 strain IHMA599644, with imipenem 1 μg/ml
In short: as §3

[5] = system: Pseudomonas aeruginosa MB9798 vs MB9799; details: fold difference between efflux+ (MB9798) and efflux− (MB9799) strains, imipenem at 2 μg/mL
In short: as §1

IMP-1 = IMP-1 (Serratia marcescens, UniProt P52699); assay: biochemical; format: biochemical; details: fluorescence assay, CCF2-FA substrate, 2 pM enzyme, 2 hours at 25° C., read-out: IMP-1 IC50
In short: as §2

NDM-1 = NDM-1 (Klebsiella pneumoniae, UniProt C7C422); assay: biochemical; format: biochemical; details: fluorescence assay, CCF2-FA substrate, 1 pM enzyme, 2 hours at 25° C., read-out: NDM-1 IC50
In short: as §2

[6] = system: Pseudomonas aeruginosa efflux+ (MB9798), IMP-1; format: cell-based; design: Concentration of metallo-β-lactamase inhibitor which restores susceptibility of efflux + (MB9798) strain to imipenem: unit not given here; details: efflux+ MB9798; imipenem at 2 μg/mL; in the presence of a class A, C, D serine β-lactamase inhibitor closely related to relebactam
In short: as §1

[7] = fluorescence assay, read-out: VIM-1 IC50
[8] = 95% inhibition of bacterial growth

NDM-1, sequence (C7C422 whole entry, looked up, species assumed): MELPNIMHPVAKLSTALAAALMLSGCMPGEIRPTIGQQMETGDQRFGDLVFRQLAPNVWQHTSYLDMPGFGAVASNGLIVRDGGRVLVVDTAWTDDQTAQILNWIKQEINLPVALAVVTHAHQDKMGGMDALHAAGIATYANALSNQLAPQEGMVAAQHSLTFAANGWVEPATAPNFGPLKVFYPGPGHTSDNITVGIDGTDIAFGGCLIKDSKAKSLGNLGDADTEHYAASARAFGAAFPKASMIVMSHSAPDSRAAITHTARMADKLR
IMP-1, sequence (P52699 whole entry, looked up, species assumed): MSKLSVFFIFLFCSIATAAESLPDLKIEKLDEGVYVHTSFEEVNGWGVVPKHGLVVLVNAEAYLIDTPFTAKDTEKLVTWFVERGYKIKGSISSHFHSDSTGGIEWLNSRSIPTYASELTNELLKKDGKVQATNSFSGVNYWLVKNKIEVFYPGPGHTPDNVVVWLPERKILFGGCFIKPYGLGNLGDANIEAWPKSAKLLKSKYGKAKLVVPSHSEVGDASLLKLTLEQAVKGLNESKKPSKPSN

| SMILES | Concentration of metallo-β-lactamase inhibitor which restores susceptibility of efflux − (MB9799) strain to imipenem [1] | IC50 (VIM-1; [7]) [nM] | Serratia marcescens MITC95 ([2]; 95% inhibition of growth) [µM] | Escherichia coli MITC95 ([3]; 95% inhibition of growth) [µM] | Klebsiella pneumoniae MITC95 ([4]; 95% inhibition of growth) [µM] | Efflux ratio [5] | IC50 (IMP-1) [nM] | IC50 (NDM-1) [nM] | Concentration of metallo-β-lactamase inhibitor which restores susceptibility of efflux + (MB9798) strain to imipenem [6] | Concentration of metallo-β-lactamase inhibitor which restores susceptibility of efflux − (MB9799) strain to imipenem ([1]; dihydrochloride) | IC50 (VIM-1; VIM-1 IC50, fluorescence assay) [nM] | Escherichia coli MITC95 ([3]; 95% inhibition of growth, dihydrochloride) [µM] | Efflux ratio ([5]; dihydrochloride) | IC50 (IMP-1; dihydrochloride) [nM] | IC50 (NDM-1; dihydrochloride) [nM] | Serratia marcescens MITC95 [2, 8] [µM] | Escherichia coli MITC95 [3, 8] [µM] | Klebsiella pneumoniae MITC95 [4, 8] [µM] |
| --- | --- | --- | --- | --- | --- | --- | --- | --- | --- | --- | --- | --- | --- | --- | --- | --- | --- | --- |
| Nc1ccc(-c2ccc(S(=O)(=O)N3CCNCC3)c(S(N)(=O)=O)c2-c2nn[nH]n2)cn1 [Example 485, 3-(6-aminopyridin-3-yl)-6-(piperazin-1-ylsulfonyl)-2-(2H-tetrazol-5-yl)benzenesulfonamide] | 0.7813 | 2.3 | 0.7813 | 0.1953 | 1.563 | 8.00 | 3.58 | 2.22 | 6.25 |  |  |  |  |  |  |  |  |  |
| NC[C@@]1(NS(=O)(=O)c2ccc(-c3ccc(N)nc3)c(-c3nn[nH]n3)c2S(N)(=O)=O)CCNC1 [Example 487, (S)-N1-(3-(aminomethyl)pyrrolidin-3-yl)-4-(6-aminopyridin-3-yl)-3-(2H-tetrazol-5-yl)benzene-1,2-disulfonamide dihydrochloride] |  |  | 0.7813 |  | 1.563 |  |  |  | 1.563 | 1.563 | 0.527 | 0.3906 | 1.00 | 0.803 | 0.274 |  |  |  |
| Nc1ccc(-c2ccc(S(=O)(=O)NC[C@@H]3CCCN3)c(S(N)(=O)=O)c2-c2nn[nH]n2)cn1 [Example 488, (S)-4-(6-aminopyridin-3-yl)-N1-(pyrrolidin-2-ylmethyl)-3-(2H-tetrazol-5-yl)benzene-1,2-disulfonamide] | 0.7813 | 0.21 | 0.1953 | 0.1953 | 1.563 | 1.00 | 0.355 | 0.206 | 0.7813 |  |  |  |  |  |  |  |  |  |
| Nc1ccc(-c2ccc(S(=O)(=O)NC[C@H]3CCCN3)c(S(N)(=O)=O)c2-c2nn[nH]n2)cn1 [Example 489, (R)-4-(6-aminopyridin-3-yl)-N1-(pyrrolidin-2-ylmethyl)-3-(2H-tetrazol-5-yl)benzene-1,2-disulfonamide] | 0.7813 | 0.267 | 0.3906 | 0.3906 | 1.563 | 2.00 | 0.566 | 0.246 | 1.563 |  |  |  |  |  |  |  |  |  |
| Nc1ccc(-c2ccc(S(=O)(=O)NC[C@@H]3CCNC3)c(S(N)(=O)=O)c2-c2nn[nH]n2)cn1 [Example 491, (R)-4-(6-aminopyridin-3-yl)-N1-(pyrrolidin-3-ylmethyl)-3-(2H-tetrazol-5-yl)benzene-1,2-disulfonamide] | 0.7813 | 0.132 | 0.7813 | 0.1953 | 1.563 | 1.00 | 0.271 | 0.0939 | 0.7813 |  |  |  |  |  |  |  |  |  |
| Nc1ccc(-c2ccc(S(=O)(=O)NCC3(O)CCNCC3)c(S(N)(=O)=O)c2-c2nn[nH]n2)cn1 [Example 492, 4-(6-aminopyridin-3-yl)-N1-((4-hydroxypiperidin-4-yl)methyl)-3-(2H-tetrazol-5-yl)benzene-1,2 disulfonamide] | 1.563 |  | 1.563 | 0.3906 | 3.125 | 1.00 | 0.52 | 0.305 | 1.563 |  | 0.24 |  |  |  |  |  |  |  |
| Nc1ccc(-c2ccc(S(=O)(=O)NC3CNC3)c(S(N)(=O)=O)c2-c2nn[nH]n2)cn1 [Example 493, 4-(6-aminopyridin-3-yl)-N1-(azetidin-3-yl)-3-(2H-tetrazol-5-yl)benzene-1,2-disulfonamide] | 0.7813 | 0.179 | 0.3906 | 0.3906 | 1.563 | 0.50 | 0.403 | 0.189 | 0.3906 |  |  |  |  |  |  |  |  |  |
| Nc1ccc(-c2ccc(S(=O)(=O)NCC3(O)CNC3)c(S(N)(=O)=O)c2-c2nn[nH]n2)cn1 [Example 495, 4-(6-aminopyridin-3-yl)-N1-((3-hydroxyazetidin-3-yl)methyl)-3-(2H-tetrazol-5-yl)benzene-1,2-disulfonamide] | 0.7813 | 0.301 | 0.7813 | 0.1953 | 1.563 | 1.00 | 0.328 | 0.215 | 0.7813 |  |  |  |  |  |  |  |  |  |
| Cl.Cl.NCCCNS(=O)(=O)c1ccc(-c2ccc(N)nc2)c(-c2nn[nH]n2)c1S(N)(=O)=O [Example 496, N1-(3-aminopropyl)-4-(6-aminopyridin-3-yl)-3-(2H-tetrazol-5-yl)benzene-1,2-disulfonamide hydrogen chloride] | 0.7813 | 0.175 |  |  |  | 1.00 | 0.576 | 0.2 | 0.7813 |  |  |  |  |  |  | 0.7813 | 0.09766 | 1.563 |
| CC1(NS(=O)(=O)c2ccc(-c3ccc(N)nc3)c(-c3nn[nH]n3)c2S(N)(=O)=O)CNC1.Cl.Cl [Example 497, 4-(6-aminopyridin-3-yl)-1-N-(3-methylazetidin-3-yl)-3-(2H-1,2,3,4-tetrazol-5-yl)benzene-1,2-disulfonamide hydrogen] | 0.7813 | 0.219 |  |  |  | 1.00 | 0.645 | 0.131 | 0.7813 |  |  |  |  |  |  | 0.7813 | 0.3906 | 1.563 |
| C[C@H](CCN)NS(=O)(=O)c1ccc(-c2ccc(N)nc2)c(-c2nn[nH]n2)c1S(N)(=O)=O [Example 498, (R)-N1-(4-aminobutan-2-yl)-4-(6-aminopyridin-3-yl)-3-(1H-tetrazol-5-yl)benzene-1,2-disulfonamide] | 0.7813 | 0.0512 |  |  |  | 1.00 | 0.0763 | 0.0146 | 0.7813 |  |  |  |  |  |  | 1.563 | 1.563 | 3.125 |
